Literature values, collected in US8410057B2, “Method of inducing T cell apoptosis by administering Altered Peptide Ligand” (Centro de Ingenieria Genetica y Biotecnologia, priority 2008, dated 2013).

Test system: monocytes and activated lamina propria T cells
Conditions: Crohn's disease patients; Van den Brande et al. 2003

Row | Substance | induction of apoptosis
1 | Etanercept | does not induce cell apoptosis
2 | infliximab: chimeric monoclonal antibody that binds to and neutralizes free and bound TNFα | induce apoptosis of monocytes and activated lamina propria T cells
